Laboratory results published in US20250051383A1, “NOVEL FEAZD, NIAZD, AND CUAZD COMPLEXES INCORPORATING 1-(2-HYDROXYPHENYLAZO)-2-NAPHTHOL (H2AZD) FOR BIOLOGICAL APPLICATIONS” (KING FAISAL UNIVERSITY, priority 2023, published 2025).
≈ marks a conversion by molar mass, not a printed value. Read-outs that look alike come from different tables or passages of the source.

Key:
Type in all cases: cell-based
[1] = test system: Pseudomonas aeruginosa (−ve); test: Disc diffusion, inhibition zone and activity index vs chloramphenicol; design: activity index (%): concentration or dose not given beside the values; conditions: for inhibition zone (IZ): disc diffusion; for activity index (%): IZ of test compound/IZ of standard chloramphenicol ×100
Experimental: (§1) The in vitro antibacterial and antifungal activity of the components was assessed using a series of bacteria (Pseudomonas aeruginosa (−ve), Staphylococcus aureus (+ve), Escherichia coli (−ve), and Bacillus cereus (+ve)) and fungi (Trichophyton rubrum, Aspergillus flavus, and Candida albicans). The disc diffusion method was used to perform the in vitro antimicrobial activity tests. The biological activity of each compound was determined by examining its impact on the size of the inhibition zone, which is a measure of the compound's effectiveness in inhibiting the growth of microorganisms. The inhibitory zone (IZ) surrounding the disc was measured in millimeters. The activity of the current compounds was compared to that of the standard antibiotic chloramphenicol, and the % Activity Index (%=IZ of test compound/IZ of Standard)×100, was evaluated.

Escherichia coli (−ve) [2] = test: as above; design: activity index (%): concentration or dose not given beside the values; conditions: for inhibition zone (IZ): disc diffusion; for activity index (%): IZ of test compound/IZ of standard chloramphenicol ×100
Experimental: as §1

[3] = test system: Staphylococcus aureus (+ve); test: as above; conditions: for activity index (%): IZ of test compound/IZ of standard chloramphenicol ×100; for inhibition zone (IZ): disc diffusion
Experimental: as §1

Bacillus cereus (+ve) [4] = test: as above; conditions: for activity index (%): IZ of test compound/IZ of standard chloramphenicol ×100; for inhibition zone (IZ): disc diffusion
Experimental: as §1

Aspergillus flavus [5] = test: as above; conditions: for activity index (%): IZ of test compound/IZ of standard ×100; for inhibition zone (IZ): disc diffusion
Experimental: as §1

Trichophyton rubrum [6] = test: as above; conditions: for activity index (%): IZ of test compound/IZ of standard ×100; for inhibition zone (IZ): disc diffusion
Experimental: as §1

Candida albicans [7] = test: as above; conditions: for activity index (%): IZ of test compound/IZ of standard ×100; for inhibition zone (IZ): disc diffusion
Experimental: as §1

[8] = test system: Staphylococcus aureus (+ve); test: MIC by repeated dilution
From the text: (§2) The MIC, or the lowest concentration of a drug that can inhibit the development of bacteria or fungi, is often used as a starting point in larger preclinical studies of new antibacterial medications. The MIC value was obtained by repeatedly diluting a sample until the desired concentration was reached.

Bacillus cereus (+ve) [9] = test: MIC by repeated dilution
From the text: as §2

Aspergillus flavus [10] = test: MIC by repeated dilution
From the text: as §2

Trichophyton rubrum [11] = test: MIC by repeated dilution
From the text: as §2

Candida albicans [12] = test: MIC by repeated dilution
From the text: as §2

[13] = test system: Pseudomonas aeruginosa (−ve); test: MIC by repeated dilution
From the text: as §2

Escherichia coli (−ve) [14] = test: MIC by repeated dilution
From the text: as §2

bacteria or fungi = test: MIC by repeated dilution, summary over the tested bacteria and fungi
From the text: as §2

Row | SMILES | inhibition zone (IZ) [1] [mm] | inhibition zone (IZ) (Escherichia coli (−ve) [2]) [mm] | activity index (%) [3] [%] | inhibition zone (IZ) [3] [mm] | activity index (%) (Bacillus cereus (+ve) [4]) | inhibition zone (IZ) (Bacillus cereus (+ve) [4]) [mm] | activity index (%) (Aspergillus flavus [5]) | inhibition zone (IZ) (Aspergillus flavus [5]) [mm] | activity index (%) (Trichophyton rubrum [6]) | inhibition zone (IZ) (Trichophyton rubrum [6]) [mm] | activity index (%) (Candida albicans [7]) | inhibition zone (IZ) (Candida albicans [7]) [mm] | MIC [8] [ppm] | MIC (Bacillus cereus (+ve) [9]) [ppm] | MIC (Aspergillus flavus [10]) [ppm] | MIC (Trichophyton rubrum [11]) [ppm] | MIC (Candida albicans [12]) [ppm] | MIC [13] [ppm] | MIC (Escherichia coli (−ve) [14]) [ppm] | activity index (%) [1] [%] | also measured
1 | O.O.O.c1ccc2c(c1)N=Nc1c(ccc3ccccc13)[O][Cu][O]2 [CuAZD] | 13 | 13 | 77.78 | 14 | 72.22 | 13 | 63.16 | 12 | 59.09 | 13 | 61.90 | 13 | 6.25 | 6.25 | 6.25 | 6.25 | 6.25 | 6.25 | 3.125 | – | –
2 | O.O.[Cl][Fe]1[O]c2ccccc2N=Nc2c(ccc3ccccc23)[O]1 [FeAZD] | 11 | 12 | 72.22 | 13 | 66.67 | 12 | 52.63 | 10 | 50.00 | 11 | 57.14 | 12 | 6.25 | 6.25 | 6.25 | 6.25 | 6.25 | 12.5 | 6.25 | 61.11 | activity index (%) (Escherichia coli (−ve) [2]): 60.00%
3 | Oc1ccccc1N=Nc1c(O)ccc2ccccc12 [H2AZD, 1-(2-hydroxyphenylazo)-2-naphthol] | 8 | 8 | 50.00 | 9 | 44.44 | 8 | 42.11 | 8 | 31.82 | 7 | 38.10 | 8 | – | – | – | – | – | – | – | 44.44 | MIC (bacteria or fungi): ~50 µg/mL (≈ 189 µM); activity index (%) (Escherichia coli (−ve) [2]): 40.00%; MIC ([8]; read-out: MIC): 50 µg/mL (≈ 189 µM); MIC (Bacillus cereus (+ve) [9]; read-out: MIC): 50 µg/mL (≈ 189 µM); MIC (Aspergillus flavus [10]; read-out: MIC): 50 µg/mL (≈ 189 µM); MIC (Trichophyton rubrum [11]; read-out: MIC): 50 µg/mL (≈ 189 µM); MIC (Candida albicans [12]; read-out: MIC): 50 µg/mL (≈ 189 µM); MIC ([13]; read-out: MIC): 50 µg/mL (≈ 189 µM); MIC (Escherichia coli (−ve) [14]; read-out: MIC): 50 µg/mL (≈ 189 µM)
4 | O.c1ccc2c(c1)N=Nc1c(ccc3ccccc13)[O][Ni][O]2 [NiAZD] | 11 | 11 | 72.22 | 13 | 61.11 | 11 | 52.63 | 10 | 45.45 | 10 | 52.38 | 11 | 6.25 | 6.25 | 6.25 | 6.25 | 6.25 | 12.5 | 6.25 | 61.11 | activity index (%) (Escherichia coli (−ve) [2]): 55.00%
